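Step 1: Grow cells in 96-well plates. Step 2: Expose to compound for 48 hours at 5 concentrations. Step 3: Interpolate endpoints linearly; if unreached, use highest concentration. TGI: total growth inhibition.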
Key:
Test in all cases: NCI tumour cell line growth inhibition, 48 h
LXFL 529 NSCLC = test system: LXFL 529 NSCLC
DMS 273 small cell lung = test system: DMS 273 small cell lung
XF 498 CNS = test system: XF 498 CNS
KM20L2 colon = test system: KM20L2 colon
P388/ADR leukemia = test system: P388/ADR leukemia
HOP-18 NSCLC = test system: HOP-18 NSCLC
SN12K1 renal = test system: SN12K1 renal
P388 leukemia = test system: P388 leukemia
RXF-631 renal = test system: RXF-631 renal

Row | SMILES | TGI (LXFL 529 NSCLC) | TGI (DMS 273 small cell lung) | TGI (XF 498 CNS) | TGI (KM20L2 colon) | TGI (P388/ADR leukemia) | TGI (HOP-18 NSCLC) | TGI (SN12K1 renal) | TGI (P388 leukemia) | TGI (RXF-631 renal)
1 | CO/C(=N\N=C\c1ccc(Cl)cc1)c1ccncc1 | > 100 µM | > 100 µM | > 100 µM | > 100 µM | – | – | – | – | –
2 | CN(C)N=Nc1ccc([N+](=O)[O-])cc1C(N)=O | – | > 100 µM | > 100 µM | > 100 µM | > 100 µM | > 100 µM | > 100 µM | > 100 µM | –
3 | Cc1cn(C2CC(O)C(CO)C2C)c(=O)[nH]c1=O (centres undefined) | > 100 µM | > 100 µM | > 100 µM | > 100 µM | – | > 100 µM | – | – | > 100 µM
4 | COC(=O)C1=C(C)N2CCCOC2(C)C(C(=O)OC)C1c1cccc(Cl)c1 (centres undefined) | 74.6 µM | – | – | 64.4 µM | – | – | – | – | –
5 | C=Nc1ccc([N+](=O)[O-])cc1 | > 100 µM | > 100 µM | > 100 µM | > 100 µM | – | > 92.9 µM | – | – | –

Reference: PubChem BioAssay (NCI)
